45 molecules from ChEMBL document CHEMBL3132858, “6-Alkyl-, 6-aryl- or 6-hetaryl-7-deazapurine ribonucleosides as inhibitors of human or MTB adenosine kinase and potential antimycobacterial agents” (Medchemcomm, 2013) can be followed below.

The experiment relates to Mycobacterium tuberculosis. The experiment is described as follows: Antimycobacterial activity against Mycobacterium bovis BCG assessed as inhibition of microbial growth after 120 hrs by MTT assay. In kind it is functional, organism-based. Particulars: variant bovis BCG. Background: Tetrazolium dyes change colour on reduction, which living cells bring about.
By IC50 is commonly meant the midpoint of a concentration-inhibition curve. In the case of `OC[C@H]1O[C@@H](n2ccc3c(-c4cccc5c4sc4ccccc45)ncnc32)[C@H](O)[C@@H]1O`, the IC50 is above 100 µM. On to `OC[C@H]1O[C@@H](n2cc(F)c3c(-c4c[nH]cn4)ncnc32)[C@H](O)[C@@H]1O`, for which the IC50 was found to be 11.7 µM. With `OC[C@H]1O[C@@H](n2ccc3c(-c4ccco4)ncnc32)[C@H](O)[C@@H]1O` the figure was above 100 µM; with `OC[C@H]1O[C@@H](n2ccc3c(Cc4ccccc4)ncnc32)[C@H](O)[C@@H]1O`, above 100 µM. Then `OC[C@H]1O[C@@H](n2ccc3c(-c4ccc[se]4)ncnc32)[C@H](O)[C@@H]1O`, with above 100 µM. With `OC[C@H]1O[C@@H](n2ccc3c(-c4cc5ccccc5s4)ncnc32)[C@H](O)[C@@H]1O` the figure was above 100 µM; with `OC[C@H]1O[C@@H](n2ccc3c(-c4c[nH]cn4)ncnc32)[C@H](O)[C@@H]1O`, 15.6 µM. With `OC[C@H]1O[C@@H](n2ccc3c(-c4nccs4)ncnc32)[C@H](O)[C@@H]1O`, the IC50 amounted to 80.5 µM. `OC[C@H]1O[C@@H](n2ccc3c(-c4cc[nH]c4)ncnc32)[C@H](O)[C@@H]1O`: the IC50 amounted to 98.2 µM.

For the molecule `COc1ccc(-c2ncnc3c2ccn3[C@@H]2O[C@H](CO)[C@@H](O)[C@H]2O)cc1`, the IC50 came to 56.9 µM. Take `OC[C@H]1O[C@@H](n2ccc3c(-c4cccc5c4oc4ccccc45)ncnc32)[C@H](O)[C@@H]1O`: the IC50 was above 100 µM.

For the molecule `CCCCCCCCCCCCCCCCCCOP(=O)(O)OC[C@H]1O[C@@H](n2ccc3c(-c4ccco4)ncnc32)[C@H](O)[C@@H]1O`, the IC50 was above 100 µM.

As to `OC[C@H]1O[C@@H](n2ccc3c(-c4cccs4)ncnc32)[C@H](O)[C@@H]1O`, the IC50 is above 100 µM.

Take `OC[C@H]1O[C@@H](n2cc(Cl)c3c(-c4ccoc4)ncnc32)[C@H](O)[C@@H]1O`: the IC50 amounted to 97.1 µM. With `CCCCCCCCCCCCCCCCCCOP(=O)(O)OC[C@H]1O[C@@H](n2ccc3c(-c4ccoc4)ncnc32)[C@H](O)[C@@H]1O` the figure was 56.6 µM.

Take `OC[C@H]1O[C@@H](n2cc(F)c3c(-c4cccs4)ncnc32)[C@H](O)[C@@H]1O`: the IC50 was above 100 µM. With `OC[C@H]1O[C@@H](n2ccc3c(-c4ccsc4)ncnc32)[C@H](O)[C@@H]1O` the figure was 81 µM; with `OC[C@H]1O[C@@H](n2cc(Cl)c3c(-c4ccco4)ncnc32)[C@H](O)[C@@H]1O`, 89.2 µM; with `OCc1ncnc2c1ccn2[C@@H]1O[C@H](CO)[C@@H](O)[C@H]1O`, 32.6 µM. On to `OC[C@H]1O[C@@H](n2ccc3c(-c4cc5ccccc5o4)ncnc32)[C@H](O)[C@@H]1O`, for which the 50% inhibitory concentration (IC50) is above 100 µM.

In the case of `OC[C@H]1O[C@@H](n2cc(F)c3c(-c4cc[nH]c4)ncnc32)[C@H](O)[C@@H]1O`, the IC50 was above 100 µM. With `OC[C@H]1O[C@@H](n2ccc3c(-c4ccccc4)ncnc32)[C@H](O)[C@@H]1O` the figure was 75.2 µM.

In the case of `OC[C@H]1O[C@@H](n2ccc3c(-c4ccc[nH]4)ncnc32)[C@H](O)[C@@H]1O`, the IC50 is 56.4 µM.

For the molecule `OC[C@H]1O[C@@H](n2cc(Cl)c3c(-c4ccc(F)cc4)ncnc32)[C@H](O)[C@@H]1O`, the IC50 was determined as 89.6 µM. For the molecule `CCCCCCCCCCCCCCCCCCOP(=O)(O)OC[C@H]1O[C@@H](n2ccc3c(-c4cc5ccccc5o4)ncnc32)[C@H](O)[C@@H]1O`, the IC50 came to 93.4 µM. For `CCCCCCCCCCCCCCCCCCOP(=O)(O)OC[C@H]1O[C@@H](n2ccc3c(-c4ccsc4)ncnc32)[C@H](O)[C@@H]1O`, the IC50 came out at 82.8 µM. With `OC[C@H]1O[C@@H](n2cc(F)c3c(-c4ccccc4)ncnc32)[C@H](O)[C@@H]1O`, the IC50 stood at 74.8 µM. For the molecule `OC[C@H]1O[C@@H](n2ccc3c(-c4ccc(F)cc4)ncnc32)[C@H](O)[C@@H]1O`, the IC50 came to 93.8 µM.

As for `OC[C@H]1O[C@@H](n2cc(F)c3c(-c4ccsc4)ncnc32)[C@H](O)[C@@H]1O`, the IC50 was above 100 µM. As for `OC[C@H]1O[C@@H](n2ccc3c(-c4cccnc4)ncnc32)[C@H](O)[C@@H]1O`, the IC50 is above 100 µM. For `OC[C@H]1O[C@@H](n2ccc3c(-c4cn[nH]c4)ncnc32)[C@H](O)[C@@H]1O`, the half-maximal inhibitory concentration (IC50) is above 100 µM. On to `OC[C@H]1O[C@@H](n2cc(Cl)c3c(-c4cccs4)ncnc32)[C@H](O)[C@@H]1O`, for which the IC50 came to 96.4 µM. With `OC[C@H]1O[C@@H](n2cc(F)c3c(-c4ccoc4)ncnc32)[C@H](O)[C@@H]1O`, the IC50 is 91.2 µM. Consider `OC[C@H]1O[C@@H](n2ccc3c(-c4ccn[nH]4)ncnc32)[C@H](O)[C@@H]1O`, for which the IC50 came to 91.1 µM.

As for `CCc1ncnc2c1ccn2[C@@H]1O[C@H](CO)[C@@H](O)[C@H]1O`, the IC50 is 88.8 µM. With `OC[C@H]1O[C@@H](n2ccc3c(-c4cccc5c4Oc4ccccc4S5)ncnc32)[C@H](O)[C@@H]1O` the figure was above 100 µM; with `OC[C@H]1O[C@@H](n2ccc3c(-c4cc5ccccc5[nH]4)ncnc32)[C@H](O)[C@@H]1O`, above 100 µM; with `OC[C@H]1O[C@@H](n2cc(F)c3c(-c4nccs4)ncnc32)[C@H](O)[C@@H]1O`, 69 µM.

As to `OC[C@H]1O[C@@H](n2ccc3c(-c4ccoc4)ncnc32)[C@H](O)[C@@H]1O`, the IC50 came out at 83.7 µM.

Consider `OC[C@H]1O[C@@H](n2cc(Cl)c3c(-c4ccccc4)ncnc32)[C@H](O)[C@@H]1O`, for which the IC50 is above 100 µM.

For `OC[C@H]1O[C@@H](n2ccc3c(-c4ccccn4)ncnc32)[C@H](O)[C@@H]1O`, the IC50 was found to be 38.2 µM. For the molecule `OC[C@H]1O[C@@H](n2cc(Cl)c3c(-c4ccsc4)ncnc32)[C@H](O)[C@@H]1O`, the concentration for half-maximal inhibition (IC50) worked out at 99.6 µM. With `OC[C@H]1O[C@@H](n2cc(F)c3c(-c4ccc[nH]4)ncnc32)[C@H](O)[C@@H]1O`, the IC50 was found to be 45.8 µM. Then `OC[C@H]1O[C@@H](n2cc(F)c3c(-c4ccco4)ncnc32)[C@H](O)[C@@H]1O`, with 73.2 µM; and `CCCCCCCCCCCCCCCCCCOP(=O)(O)OC[C@H]1O[C@@H](n2ccc3c(-c4ccccc4)ncnc32)[C@H](O)[C@@H]1O`, with above 100 µM.
